The text below walks through data of patent US4288437A, “2-[(Amino)-aryl-methylene]-benzo[b]thiophen-3(2H)-ones” (Boehringer Ingelheim GmbH, priority 1979, dated 1981).

SMILES strings stand for the structures. Where two headings read alike, the source gives them in different places.

For data set [1], the system named is tonic extensor spasm of the rear legs of male mice under maximum electric shock. Kind of data set: Anticonvulsant activity in mice (inhibition of tonic extensor spasm under maximum electric shock). Format: in vivo, male SPF mice (Chbb:NMRI). To be noted: Mus musculus, po, p.o., 10 mice/dose. The method, then:
1. Anticonvulsant activity in mice
The anticonvulsant activity was tested as the inhibition of the tonic extensor spasm of the rear legs of male mice under maximum electric shock.
The test animals were male SPF mice (Chbb:NMRI) weighing 20 to 26 g which, up to one hour before oral administration of the test compound, had access to standard feed and drinking water.
The test procedure was based on that of SWINYARD, BROWN and GOODMAN (J. Pharmacol. Exp. Ther. 106, 319 [1952]). The electrical shock equipment was manufactured in accordance with information provided by WOODBURY and DAVENPORT (Arch. int. Pharmacodyn. 92, 97 [1952]). The electrical stimuli were applied to the heads of the animals above the eyes using chamois-covered steel ball electrodes moistened with a 0.9% NaCl solution. The stimulus lasted 0.2 sec. using alternating current of 50 Hz and 50 mA. There was a […] and then a tonic stretching spasm of the extremities in the case of all the controls.
The substance to be tested was suspended in a 1% tylose slurry and was perorally administered in a volume of 0.1 ml/10 gm mouse to 10 mice/dose. […], and the ED50 values were determined as the dosages sufficient to protect 50% of the animals against the tonic stretching spasm of the rear extremities, either graphically or by the method of LITCHFIELD and WILCOXON (J. Pharmacol. Exp. Ther. 96, 99 [1949]).

Data set [2] in a line: Orienting acute toxicity in mice. To be noted: mouse, in vivo, po, observation period 7 days. The procedure: The orienting acute toxicity of the compounds was determined after administering a dose to groups of 6 or 10 mice each with body weights between 10 and 26 gm (observation period: 7 days).
[3] abbreviates: 0.5 h, shock 30 minutes after administration, read-out: ED50, 30 minutes.
Setting [4] is: 2.5 h, shock 150 minutes after administration, read-out: ED50, 150 minutes.
[5] abbreviates: 5 h, shock 300 minutes after administration, read-out: ED50, 300 minutes.

By ED50 is commonly meant the midpoint of the dose-response relation. Usually LD50 stands for the dose expected to kill half of the subjects tested. A higher LD50 goes with lower toxicity. On to `N/C(=C1/Sc2ccccc2C1=O)c1ccccc1` [A, (E)-2-[(amino)phenylmethylene]-benzo[b]thiophen-3(2H)-one], for which the 50% effective dose (ED50) stood at 12.8 mg/kg in data set [1] (setting [3]), 37 mg/kg in data set [1] (setting [4]) and 46 mg/kg in data set [1] (setting [5]). Further, in data set [2], the LD50 at 168 h stood at 2400 mg/kg.

Turning to `CN/C(=C1/Sc2ccccc2C1=O)c1ccccc1` [B, (E)-2-[(methylamino)phenylmethylene]-benzo[b]thiophen-3(2H)-one], the ED50 in data set [1] (setting [3]) amounted to 90 mg/kg; in data set [1] (setting [4]) it was 38 mg/kg; in data set [1] (setting [5]), 49 mg/kg. The same compound yielded an LD50 at 168 h in data set [2] above 1000 mg/kg.

Turning to `N/C(=C1/Sc2ccccc2C1=O)c1ccccc1Cl` [C, (E)-2-[(amino)-(2-chloro-phenyl)methylene]-benzo[b]thiophen-3(2H)-one], the ED50 stood at 7 mg/kg in data set [1] (setting [3]), 4.4 mg/kg in data set [1] (setting [4]) and 5 mg/kg in data set [1] (setting [5]). Moreover, the LD50 at 168 h in data set [2] fell in the range of 500 to 1000 mg/kg.

In the case of `O=C1/C(=C(\NCCO)c2ccccc2)Sc2ccccc21` [D, (E)-2-{[(2-hydroxy-ethyl)amino]phenylmethylene}benzo[b]thiophen-3(2H)-one], the values for the ED50 in data set [1] (setting [3]), in data set [1] (setting [4]) and in data set [1] (setting [5]) were 33 mg/kg, 41 mg/kg and 42.5 mg/kg, respectively. The LD50 at 168 h in data set [2] was above 1000 mg/kg.

`Cc1ccccc1/C(N)=C1\Sc2ccccc2C1=O` [E, (E)-2-[(amino)-(2-methyl-phenyl)methylene]-benzo[b]-thiophen-3(2H)-one]: the ED50 in data set [1] (setting [3]) came out at 22.8 mg/kg; in data set [1] (setting [4]), 13.3 mg/kg; in data set [1] (setting [5]) it was 15.7 mg/kg. Further, the LD50 at 168 h in data set [2] was above 1000 mg/kg.

Take `CCN/C(=C1/Sc2ccccc2C1=O)c1ccccc1` [F, (E)-2-[(ethylamino)phenylmethylene]-benzo[b]thiophen-3(2H)-one]: the ED50 in data set [1] (setting [3]) was 22.5 mg/kg; in data set [1] (setting [4]), 54.6 mg/kg; in data set [1] (setting [5]) it was 79 mg/kg. Also, the LD50 at 168 h in data set [2] was above 1000 mg/kg.
